# Test results as given in publication PMC8399901, “Effects of a Peripherally Restricted Hybrid Inhibitor of CB1 Receptors and iNOS on Alcohol Drinking Behavior and Alcohol-Induced Endotoxemia” (Molecules, 2021).
# Assays:
# CB1R [1] = target: T1, CB1R (Mus musculus, UniProt P47746); assay: CP 55,940-induced hypothermia in mice; type: in vivo; details: CP55,940 0.1–3 mg/kg i.p.
# T1 construct: from tissue; host or cells: living C57BL/6J mice (whole animal; brain and peripheral tissues)
# Experimental: (§1) Drugs were applied in a volume of 1 μL over the course of 2 min via 33 g internal injector (P1 Technologies, Roanoke, VA, USA) connected with the 2 µL precision glass Hamilton syringe (USA) by a PE-20 tubing (Fisher Scientific, Hampton, NH, USA). The infusion rate and volume were controlled through the use of the syringe pump (model PHD 22/2000, Harvard Apparatus, Cambridge, MA, USA). Following 2 min infusion, injectors were left in place for additional 3 min to allow a passive diffusion of drugs into the tissue.
# (§2) Catalepsy was assessed using the bar test described with modifications. Mice were removed from home cages and their forepaws were placed on a horizontal stainless-steel rod, 0.5 cm in diameter, positioned 3.5 cm above the bench surface. […] The arbitrary cutoff time for cataleptic mice was 60 s. Hypothermia was then evaluated by measuring core body temperature with a rectal probe (Ellab Inc., Denver, CO, USA).
# (§3) To determine a working range of CP 55,940 doses that induce catalepsy and hypothermia through CB1R, a dose–response curve for CP 55,940 was constructed first. Pharmacologically naïve Cnr1^−/− and wild-type littermates were injected with increasing doses of CP 55,940 (0.1, 0.3, 1, and 3 mg/kg; i.p.) at 30 min intervals. Hypothermia and catalepsy tests were performed every 30 min before ordering the next dose of CP 55,940.
# CB1R [2] = target: T1, CB1R; assay: CP 55,940-induced catalepsy (bar test) in mice; type: in vivo; details: CP55,940 0.1–3 mg/kg i.p.
# Experimental: as §1, §2, §3
# CB1R [3] = target: T1, CB1R; assay: Elevated plus maze test of anxiety-related behavior; type: in vivo; details: 1 µg i.c.v., tested 1 h later
# Experimental: as §1
# Anxiety-related behavior was assessed using the elevated plus maze (EPM) test as described, with modifications. C57BL/6J mice were allowed to acclimate in their home cages for 2 h prior to the procedure. Animals received i.c.v infusion of JD5037 1 µg or vehicle and were tested in the EPM one hour later.
# Mice were given 5 min to explore an elevated platform (72 cm above the floor) consisting of two opposing open and closed arms (each 30 × 5 cm) crossing each other. Illumination in the open and closed arms was 20 and 90 Lux, respectively. Mice were placed individually in the center of the platform (5 × 5 cm) facing an open arm. The behavior of each mouse was monitored by a computer-assisted video tracking system EthoVision XT (Noldus, Leesburg, VA, USA). The tested categories include total distance (cm) and average velocity (cm/s) of the run in the entire maze, cumulative duration (% of total time) spent in closed and open arms, number of entries into each closed and open arm of the maze (in-zone frequency). Arm entries were defined as crossing of the center point (located at approximately two thirds of the mouse body) into the arm. Number of entries, time spent in the open or closed arms, and distance travelled were measured by an automated HindSight software system (Hindsight, version 1.4, Hindsight Software Solutions Inc., Frisco, TX, USA).
# CB1R [4] = target: T1, CB1R; assay: Drinking-in-the-dark voluntary ethanol intake (20% ethanol, 4 h); type: in vivo; details: for alcohol drinking after oral gavage: wild-type/C57BL/6J mice, oral gavage day 4 (rimonabant 10 mg/kg; JD5037 3 mg/kg; S-MRI-1867 3, 10 mg/kg; R-MRI-1867 10 mg/kg)
# Experimental: as §1
# The procedure was performed as described, with modifications. Mice were individually housed and acclimated to the room for 5–7 days before testing and randomly assigned to treatment groups. Starting 3 h into the dark cycle, water bottles were replaced with 20% ethanol in 25 × 100 mm glass tubes fitted with metal sippers, Access to the ethanol solution was limited to 4 h every day. […] Immediately after the drinking session, mice were deeply anesthetized with isoflurane. Blood was collected by traumatic avulsion of the orbital globe and kept for 10 min at room temperature in Eppendorf tubes followed by centrifugation at 3000× g for 10 min at 4 °C. Serum was collected and kept frozen in sealed vials at −80 °C until analysis.
# CB1R [5] = target: T1, CB1R; set-up: method as in PMID 31105045; details: cited from earlier work
# CB1R [6] = target: T1, CB1R; assay: Two-bottle free-choice alcohol preference test (15% ethanol); type: in vivo; details: for alcohol preference and intake: daily oral gavage days 6–10 (S-MRI-1867 3, 10 mg/kg; R-MRI-1867 10 mg/kg), male C57BL/6J mice
# Experimental: The procedure was performed as described, with modifications. Animals were individually housed and acclimated to the paradigm for 5–7 days by having access to two identical water bottles and handled daily to minimize the stress associated with drug testing. Animals were first subjected to a gradual increase in ethanol concentration in a drinking bottle (3%, 6%, 9%, 12%, 15%), while the other bottle contained water. The position of the bottles was changed every day, and alcohol and water bottles were replaced every 4 days. Once alcohol concentration reached 15%, animals remained on the paradigm for 10 days. Starting on day 2, mice received vehicle by oral gavage for 4 days, followed by a daily treatment with the global or peripheral CB1 antagonist (S-MRI-1867 1, 3, 10 mg/kg; R-MRI-1867 10 mg/kg,) or vehicle (control group) for another 5 days, one hour before the dark period. All animals were sacrificed for blood and tissue collection 12–16 h after treatment.
# iNOS = target: T2, iNOS (Mus musculus, UniProt P29477); assay: Serum endotoxin in portal vein after acute ethanol intoxication; type: in vivo; details: 10 mg/kg oral gavage 30 min before 6 g/kg ethanol intragastric
# T2 construct: from tissue; host or cells: living C57BL/6J mice (whole animal)
# Experimental: The acute intoxication was performed on 8-week-old C57BL/6J mice as developed by, with modifications. […] The animals were fasted overnight. On the day of the experiment, they were transferred to the procedure room and allowed to acclimate to the new environment for 2 h while remaining in their home cages. Animals were divided into six treatment groups. Each mouse received S-MRI-1867 10 mg/kg or R-MRI-1867 10 mg/kg or vehicle by oral gavage, followed 6 g/kg ethanol (30% w/v) or saline by the same administration route 30 min later. Mice were anaesthetized by isoflurane 90 min later and sacrificed for blood withdrawal and tissue collection. To determine endotoxin levels, blood was drawn aseptically from the portal vein without anticoagulant and clotted for 30 min at room temperature. Samples were then centrifuged at 2000× g for 15 min at room temperature. Serum was pipetted off aseptically into new sterile vials and kept frozen at −80 °C until analysis. For the collection of tissue specimens, the entire alimentary tract was removed and cleaned from the mesentery from mice treated with S-MRI-1867 and saline. Stomach and ~5 cm segments of duodenum, jejunum, ileum, and colon were dissected out, flushed three times with 20 mL ice-cold PBS, and kept in −80 °C freezer till analysis.
# Serum samples were thawed and diluted 1:5 with sterile water. […]
# CB1R [7] = details: cited from earlier work
# [8] = CB1R-deficient (Cnr1−/−) mice, apart from the highest dose (3 mg/kg)
# [9] = wild-type mice, cumulative at 30 min intervals
# T1 sequence (P47746 whole entry): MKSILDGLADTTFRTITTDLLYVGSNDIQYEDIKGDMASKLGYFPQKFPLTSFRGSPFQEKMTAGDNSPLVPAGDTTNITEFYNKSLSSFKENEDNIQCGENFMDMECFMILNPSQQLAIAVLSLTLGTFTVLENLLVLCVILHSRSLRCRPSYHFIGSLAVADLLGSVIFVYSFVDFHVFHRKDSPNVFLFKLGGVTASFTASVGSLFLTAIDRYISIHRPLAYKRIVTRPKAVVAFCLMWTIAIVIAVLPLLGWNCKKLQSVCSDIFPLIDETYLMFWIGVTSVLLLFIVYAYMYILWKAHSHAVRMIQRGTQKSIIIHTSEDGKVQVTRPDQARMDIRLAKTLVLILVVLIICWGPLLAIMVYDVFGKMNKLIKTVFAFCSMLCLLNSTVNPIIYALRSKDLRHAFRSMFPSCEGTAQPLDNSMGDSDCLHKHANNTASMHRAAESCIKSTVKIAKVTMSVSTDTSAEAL
smiles,measurement,setting,value
"CCCCCCC(C)(C)c1ccc([C@@H]2C[C@H](O)CC[C@H]2CCCO)c(O)c1 [CP55,940]",decrease in body temperature (hypothermia),CB1R [1]; [8],completely insensitive to treatment
same,decrease in body temperature (hypothermia),CB1R [1]; [9],dose-dependent decrease in body temperature
same,cataleptic behavior,CB1R [2]; [8],completely insensitive to treatment
same,cataleptic behavior,CB1R [2]; [9],cataleptic behavior
CC(C)[C@H](N=C(NS(=O)(=O)c1ccc(Cl)cc1)N1C[C@H](c2ccccc2)C(c2ccc(Cl)cc2)=N1)C(N)=O [JD5037],velocity in elevated plus maze,"CB1R [3]; 5 min run, n = 6, mean ± s.e.m., vehicle 4.0 ± 0.4",2.4 ± 0.4 cm/s
same,total distance traveled in elevated plus maze,"CB1R [3]; 5 min run, n = 6, mean ± s.e.m., vehicle 1189.0 ± 111.6",740.5 ± 130.6 cm
same,movement between the two closed arms (frequency),CB1R [3]; vs vehicle,moved less frequently between the two closed arms
same,open arm entries and exploration,CB1R [3]; vs vehicle,failure to enter open arms
same,time spent in closed arms,CB1R [3]; vs vehicle,stayed much longer in the closed arms
same,alcohol drinking after i.c.v. infusion,"CB1R [4]; i.c.v. on day 4, one hour before dark period (rimonabant 2 µg; JD5037 1 µg)",ineffective in reducing alcohol drinking
same,alcohol drinking after oral gavage,CB1R [4],effectively reduced alcohol drinking
same,effect on alcohol drinking in CB1R-deficient mice,CB1R [5],did not occur in CB1R-deficient mice
C/C(N)=N/C(=N\S(=O)(=O)c1ccc(C(F)(F)F)cc1)N1C[C@@H](c2ccccc2)C(c2ccc(Cl)cc2)=N1 [R-MRI-1867],alcohol drinking after oral gavage,CB1R [4],unaffected
same,alcohol preference and intake,CB1R [6],remained unaffected
same,alcohol-induced increase in plasma levels of LPS (portal serum endotoxin),iNOS,similarly inhibited
same,CB1R activity,CB1R [7],CB1R inactive
CC(N)=NC(=NS(=O)(=O)c1ccc(C(F)(F)F)cc1)N1C[C@H](c2ccccc2)C(c2ccc(Cl)cc2)=N1 [S-MRI-1867],alcohol drinking after oral gavage,CB1R [4],inhibited alcohol consumption in a dose-dependent fashion
same,alcohol preference and intake,CB1R [6],effective in reducing alcohol preference and intake
same,total liquid consumption or food intake,"CB1R [6]; daily oral gavage days 6–10, S-MRI-1867 3, 10 mg/kg",without affecting
same,alcohol-induced increase in plasma levels of LPS (portal serum endotoxin),iNOS,similarly inhibited
same,CB1R inhibitory potency,CB1R [7],nanomolar
